Measurements: paper PMC8918994, “Characterization of the Trimethylamine N-Oxide Transporter From Pelagibacter Strain HTCC1062 Reveals Its Oligotrophic Niche Adaption” (Frontiers in Microbiology, 2022)

Tests used:
Experiment in all cases: isothermal titration calorimetry
Assay type in all cases: binding
TmoX1062 [1] = target: T1, TmoX1062 (Candidatus Pelagibacter communis, UniProt Q4FL33, W85A); settings: 10 mM Tris-HCl pH 8.0, 100 mM NaCl
T1 construct: gene tmoX

TmoX1062 [2] = target: T2, TmoX1062 (Candidatus Pelagibacter communis, UniProt Q4FL33, W212A); settings: 10 mM Tris-HCl pH 8.0, 100 mM NaCl
T2 construct: gene tmoX
T2 sequence (Q4FL33 25-314 W212A): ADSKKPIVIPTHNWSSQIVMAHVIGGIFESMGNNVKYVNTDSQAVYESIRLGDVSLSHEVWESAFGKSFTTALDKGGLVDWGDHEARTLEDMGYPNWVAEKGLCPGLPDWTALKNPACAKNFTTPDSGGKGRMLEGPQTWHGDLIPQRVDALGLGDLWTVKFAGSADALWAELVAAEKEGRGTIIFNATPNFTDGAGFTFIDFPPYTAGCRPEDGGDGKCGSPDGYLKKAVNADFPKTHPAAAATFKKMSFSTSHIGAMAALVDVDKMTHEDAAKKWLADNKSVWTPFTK

TmoX1062 [3] = target: T3, TmoX1062 (Candidatus Pelagibacter communis, UniProt Q4FL33, W38A); settings: 10 mM Tris-HCl pH 8.0, 100 mM NaCl
T3 construct: gene tmoX
T3 sequence (Q4FL33 25-314 W38A): as the sequence (Q4FL33 25-314 W212A) above, with W14A, A188W counted along it

TmoX1062 [4] = target: T4, TmoX1062 (Candidatus Pelagibacter communis, UniProt Q4FL33, E114A); settings: 10 mM Tris-HCl pH 8.0, 100 mM NaCl
T4 construct: gene tmoX
T4 sequence (Q4FL33 25-314 E114A): as the sequence (Q4FL33 25-314 W212A) above, with E90A, A188W counted along it

TmoX1062 [5] = target: T5, TmoX1062 (Candidatus Pelagibacter communis, UniProt Q4FL33, F210A); settings: 10 mM Tris-HCl pH 8.0, 100 mM NaCl
T5 construct: gene tmoX
T5 sequence (Q4FL33 25-314 F210A): as the sequence (Q4FL33 25-314 W212A) above, with F186A, A188W counted along it

TmoX1062 [6] = target: T6, TmoX1062 (Candidatus Pelagibacter communis, UniProt Q4FL33)
T6 construct: gene tmoX
T6 sequence (Q4FL33 25-314): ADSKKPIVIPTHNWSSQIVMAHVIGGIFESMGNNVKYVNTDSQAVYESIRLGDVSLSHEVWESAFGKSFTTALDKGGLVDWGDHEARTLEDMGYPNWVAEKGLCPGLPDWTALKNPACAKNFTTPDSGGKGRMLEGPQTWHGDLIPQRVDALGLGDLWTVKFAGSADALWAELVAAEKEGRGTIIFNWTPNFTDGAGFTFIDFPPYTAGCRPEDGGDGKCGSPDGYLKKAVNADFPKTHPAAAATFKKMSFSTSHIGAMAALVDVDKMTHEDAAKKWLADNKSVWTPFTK
Description: isothermal titration calorimetry on TmoX1062

TmoX1062 [7] = target: T7, TmoX1062 (Candidatus Pelagibacter communis, UniProt Q4FL33, F89A); settings: 10 mM Tris-HCl pH 8.0, 100 mM NaCl
T7 construct: gene tmoX
T7 sequence (Q4FL33 25-314 F89A): as the sequence (Q4FL33 25-314 W212A) above, with F65A, A188W counted along it

T1 sequence (Q4FL33 25-314 W85A): as the sequence (Q4FL33 25-314 W212A) above, with W61A, A188W counted along it

| Structure (SMILES) | binding affinity relative to WT (100%) (TmoX1062 [1]) | binding affinity relative to WT (100%) (TmoX1062 [2]) | binding affinity relative to WT (100%) (TmoX1062 [3]) | binding affinity relative to WT (100%) (TmoX1062 [4]) | binding affinity relative to WT (100%) (TmoX1062 [5]) | Kd (TmoX1062 [6]) [nM] | binding affinity relative to WT (100%) (TmoX1062 [7]) |
| --- | --- | --- | --- | --- | --- | --- | --- |
| C[N+](C)(C)[O-] [TMAO] | Mutations of Trp85, Phe89 and Trp212 to alanine severely deceased the binding affinity of TmoX1062 | Mutations of Trp85, Phe89 and Trp212 to alanine severely deceased the binding affinity of TmoX1062 | mutants W38A and F210A still maintained a relatively high TMAO binding affinity | Mutation of Glu114 to alanine abolished the binding affinity of TmoX1062 toward TMAO | mutants W38A and F210A still maintained a relatively high TMAO binding affinity | 520 ± 120 | Mutations of Trp85, Phe89 and Trp212 to alanine severely deceased the binding affinity of TmoX1062 |
| C[N+](C)(C)CCO [Choline] |  |  |  |  |  | 2500 ± 330 |  |
